From the NIST ThermoML archive (doi:10.1021/je8005979) come the findings set out here.

For this data set the following is noted: Crystal; visual observation.

Molecules are shown by their SMILES. ± gives the expanded uncertainty stated by the source.

Turning to `CCCCCCCCCCCCCCCC(=O)O` [hexadecanoic acid], the Normal melting temperature was 62.7 ± 0.4 °C.
